According to PubChem BioAssay AID212 (DTP/NCI, 2004):
Several values for one entry are separate records, joined by “and”; a condition that tells them apart may be missing. Equal values may be shown once. Records with an inconclusive call do not appear.

Tested on: BDF1 mice, colon carcinoma 38 sc, T/C %
Assay: NCI In Vivo Anticancer Drug Screen. Data for tumor model Colon Carcinoma 38 (subcutaneous) in B6D2F1 (BDF1) mice
Settings: endpoint: median tumor weight (est.), higher = larger tumour
How it was run: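 T/C readout: treated group (T) measurement over vehicle control group (C) measurement. Endpoint is survival or tumor size in mice bearing a transplanted tumor.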

[1] = dose: 2.0 mg/kg/injection, schedule: Q07DX002 (ip), vehicle: saline
[2] = dose: 8.0 mg/kg/injection, schedule: Q07DX002 (ip), vehicle: saline
[3] = dose: 12.5 mg/kg/injection, schedule: Q07DX002 (ip), vehicle: Klucel (hydroxypropylcellulose) (HPC)
[4] = dose: 25.0 mg/kg/injection, schedule: Q07DX002 (ip), vehicle: Klucel (hydroxypropylcellulose) (HPC)
[5] = dose: 50.0 mg/kg/injection, schedule: Q07DX002 (ip), vehicle: Klucel (hydroxypropylcellulose) (HPC)
[6] = dose: 100.0 mg/kg/injection, schedule: Q07DX002 (ip), vehicle: Klucel (hydroxypropylcellulose) (HPC)
[7] = dose: 200.0 mg/kg/injection, schedule: Q07DX002 (ip), vehicle: Klucel (hydroxypropylcellulose) (HPC)
[8] = dose: 400.0 mg/kg/injection, schedule: Q07DX002 (ip), vehicle: Klucel (hydroxypropylcellulose) (HPC)
[9] = dose: 50.0 mg/kg/injection, schedule: Q07DX002 (ip), vehicle: suspension in saline
[10] = dose: 0.25 mg/kg/injection, schedule: Q07DX002 (ip), vehicle: saline
[11] = dose: 6.25 mg/kg/injection, schedule: Q07DX002 (ip), vehicle: saline
[12] = dose: 12.5 mg/kg/injection, schedule: Q07DX002 (ip), vehicle: saline
[13] = dose: 50.0 mg/kg/injection, schedule: Q07DX002 (ip), vehicle: saline
[14] = dose: 50.0 mg/kg/injection, schedule: Q07DX002 (ip), vehicle: saline with Tween-80
[15] = dose: 12.5 mg/kg/injection, schedule: Q07DX002 (ip), vehicle: suspension in saline
[16] = dose: 25.0 mg/kg/injection, schedule: Q07DX002 (ip), vehicle: saline

Which T/C (dose: 1.0 mg/kg/injection, schedule: Q07DX002 (ip), vehicle: saline) does the source give for Nc1ncnc2c1ncn2C1C=C(CO)C(O)C1O (centres undefined) here?
The T/C was 74 % of control and 84 % of control.

And the T/C [1]?
Its T/C is 93 % of control.

What about the T/C [2] of the same compound?
The T/C was 107 % of control.

O=S(CCCl)CCCl was tested. Which T/C (dose: 0.78 mg/kg/injection, schedule: Q07DX003 (ip), vehicle: Klucel (hydroxypropylcellulose) (HPC)) did it give?
The T/C was 57 % of control.

And the T/C (dose: 1.56 mg/kg/injection, schedule: Q07DX003 (ip), vehicle: Klucel (hydroxypropylcellulose) (HPC))?
The T/C was 84 % of control.

And the T/C (dose: 3.12 mg/kg/injection, schedule: Q07DX003 (ip), vehicle: Klucel (hydroxypropylcellulose) (HPC))?
The T/C was 83 % of control.

What about the T/C (dose: 6.25 mg/kg/injection, schedule: Q07DX003 (ip), vehicle: Klucel (hydroxypropylcellulose) (HPC)) of the same compound?
The T/C was 87 % of control.

And the T/C [3]?
The T/C was 150 % of control.

And the T/C (dose: 12.5 mg/kg/injection, schedule: Q07DX003 (ip), vehicle: Klucel (hydroxypropylcellulose) (HPC))?
Its T/C is 84 % of control.

And the T/C [4]?
Its T/C is 96 % of control.

What about the T/C (dose: 25.0 mg/kg/injection, schedule: Q07DX003 (ip), vehicle: Klucel (hydroxypropylcellulose) (HPC)) of the same compound?
The T/C was 95 % of control.

What about the T/C [5] of the same compound?
The T/C was 153 % of control.

And the T/C [6]?
Its T/C is 110 % of control.

C=C1C(=O)OC2/C=C(\CO)C(OC(C)=O)CC(O)/C(C)=C/C(OC(=O)C(C)CC)C12 (centres undefined) was tested. Which T/C [6] did it give?
Its T/C is 165 % of control.

What about the T/C [7] of the same compound?
Its T/C is 95 % of control.

What about the T/C [8] of the same compound?
Its T/C is 178 % of control.

Nc1ccc(S(=O)(=O)Nc2cnc3c(Cl)cccc3n2)cc1 was tested. Which T/C (dose: 250.0 mg/kg/injection, schedule: Q07DX002 (ip), vehicle: DMSO) did it give?
The T/C was 82 % of control.

How did the T/C (dose: 12.5 mg/kg/injection, schedule: Q07DX002 (ip), vehicle: DMSO) turn out when Oc1ccc(SCc2ccc(NCc3ccccc3)cc2)cc1 was run?
The T/C was 75 % of control.

And the T/C (dose: 25.0 mg/kg/injection, schedule: Q07DX002 (ip), vehicle: DMSO)?
Its T/C is 82 % of control.

And the T/C (dose: 50.0 mg/kg/injection, schedule: Q07DX002 (ip), vehicle: DMSO)?
The T/C was 85 % of control.

And the T/C (dose: 100.0 mg/kg/injection, schedule: Q07DX002 (ip), vehicle: DMSO)?
The T/C was 109 % of control.

And the T/C (dose: 200.0 mg/kg/injection, schedule: Q07DX002 (ip), vehicle: DMSO)?
Its T/C is 82 % of control.

Which results are given for CC(=O)OCC1OC(n2ncc(=O)[nH]c2=O)C(OC(C)=O)C1OC(C)=O (centres undefined)?
T/C [9]: 100 % of control; T/C (dose: 100.0 mg/kg/injection, schedule: Q07DX002 (ip), vehicle: suspension in saline): 95 % of control; T/C (dose: 200.0 mg/kg/injection, schedule: Q07DX002 (ip), vehicle: suspension in saline): 52 % of control; T/C (dose: 400.0 mg/kg/injection, schedule: Q07DX002 (ip), vehicle: suspension in saline): 66 % of control; T/C (dose: 800.0 mg/kg/injection, schedule: Q07DX002 (ip), vehicle: suspension in saline): 64 % of control

For CCc1ccc(C2=C(O)C(=O)C(c3ccccc3)=C(O)C2=O)cc1, which T/C [3] is on record?
The T/C was 101 % of control.

And the T/C [4]?
Its T/C is 81 % of control.

And the T/C [5]?
Its T/C is 50 % of control.

With CNC(=O)/C=C/C1=CN2C(=O)c3ccc(C)c(O)c3NC(OC)C2C1 (centres undefined) as the compound, how does the T/C (dose: 0.03 mg/kg/injection, schedule: Q07DX002 (ip), vehicle: saline) read?
Its T/C is 119 % of control.

What about the T/C (dose: 0.06 mg/kg/injection, schedule: Q07DX002 (ip), vehicle: saline) of the same compound?
Its T/C is 109 % of control.

And the T/C [10]?
Its T/C is 103 % of control.

What about the T/C (dose: 0.5 mg/kg/injection, schedule: Q07DX002 (ip), vehicle: saline) of the same compound?
The T/C was 122 % of control.

For O=c1cc(-c2ccccc2)[nH]c2c1CCCC2, which T/C (dose: 900.0 mg/kg/injection, schedule: Q07DX002 (ip), vehicle: saline with Tween-80) is on record?
Its T/C is 101 % of control.

Which T/C (dose: 8.0 mg/kg/injection, schedule: Q07DX002 (ip), vehicle: Klucel (hydroxypropylcellulose) (HPC)) does the source give for C=C1C(=O)C23C(O)CC4C5(C)CCCC4(C(O)OC5)C2C(OC(C)=O)CC1C3O (centres undefined) here?
The T/C was 72 % of control.

What about the T/C [2] of the same compound?
The T/C was 124 % of control.

And the T/C (dose: 16.0 mg/kg/injection, schedule: Q07DX002 (ip), vehicle: Klucel (hydroxypropylcellulose) (HPC))?
The T/C was 72 % of control.

And the T/C (dose: 16.0 mg/kg/injection, schedule: Q07DX002 (ip), vehicle: saline)?
The T/C was 106 % of control.

And the T/C (dose: 32.0 mg/kg/injection, schedule: Q07DX002 (ip), vehicle: Klucel (hydroxypropylcellulose) (HPC))?
Its T/C is 106 % of control.

What about the T/C (dose: 32.0 mg/kg/injection, schedule: Q07DX002 (ip), vehicle: saline) of the same compound?
Its T/C is 117 % of control.

What about the T/C (dose: 64.0 mg/kg/injection, schedule: Q07DX002 (ip), vehicle: Klucel (hydroxypropylcellulose) (HPC)) of the same compound?
The T/C was 112 % of control.

And the T/C (dose: 64.0 mg/kg/injection, schedule: Q07DX002 (ip), vehicle: saline)?
The T/C was 101 % of control.

What about the T/C (dose: 128.0 mg/kg/injection, schedule: Q07DX002 (ip), vehicle: Klucel (hydroxypropylcellulose) (HPC)) of the same compound?
The T/C was 79 % of control.

What does the source list for O=NNc1ccccn1?
T/C (dose: 1.56 mg/kg/injection, schedule: Q07DX002 (ip), vehicle: saline): 98 % of control; T/C (dose: 3.12 mg/kg/injection, schedule: Q07DX002 (ip), vehicle: saline): 85 % of control and 96 % of control; T/C [11]: 110 % of control; T/C [12]: 120 % of control and 106 % of control; T/C [13]: 95 % of control

Which T/C (dose: 100.0 mg/kg/injection, schedule: Q07DX002 (ip), vehicle: distilled water + Tween-80) does the source give for CNC(=O)OCc1c(COC(=O)NC)c(-c2ccccc2)n(C)c1-c1ccccc1 here?
Its T/C is 62 % of control.

CSCS(=O)C[C@H](CO)NC(=O)/C=C/c1c(C)[nH]c(=O)[nH]c1=O (some centres undefined) was tested. Which T/C [10] did it give?
Its T/C is 110 % of control and 86 % of control.

And the T/C [1]?
The T/C was 105 % of control.

And the T/C (dose: 4.0 mg/kg/injection, schedule: Q07DX002 (ip), vehicle: saline)?
Its T/C is 62 % of control and 74 % of control.

How did the T/C (dose: 25.0 mg/kg/injection, schedule: Q07DX002 (ip), vehicle: saline with Tween-80) turn out when OC1(CSc2ccccc2)CCCCC1 was run?
Its T/C is 93 % of control.

And the T/C [14]?
Its T/C is 47 % of control.

And the T/C (dose: 100.0 mg/kg/injection, schedule: Q07DX002 (ip), vehicle: saline with Tween-80)?
The T/C was 97 % of control.

And the T/C (dose: 200.0 mg/kg/injection, schedule: Q07DX002 (ip), vehicle: saline with Tween-80)?
The T/C was 87 % of control.

And the T/C (dose: 400.0 mg/kg/injection, schedule: Q07DX002 (ip), vehicle: saline with Tween-80)?
The T/C was 77 % of control.

OC1CCCC2CCC[N-]C12.OC1CCCC2CCC[N-]C12.[Mn+2] (centres undefined) was tested. Which T/C [3] did it give?
Its T/C is 76 % of control.

And the T/C [5]?
The T/C was 91 % of control.

And the T/C [6]?
The T/C was 63 % of control and 84 % of control.

What about the T/C [7] of the same compound?
Its T/C is 86 % of control and 98 % of control.

And the T/C [8]?
The T/C was 69 % of control.

What does the source list for c1cc(-c2cc3ccc(C4=NCCN4)cc3[nH]2)ccc1C1=NCCN1?
T/C [11]: 84 % of control; T/C (dose: 6.25 mg/kg/injection, schedule: Q07DX002 (ip), vehicle: suspension in saline): 90 % of control; T/C [12]: 92 % of control; T/C [15]: 87 % of control; T/C [16]: 100 % of control; T/C (dose: 25.0 mg/kg/injection, schedule: Q07DX002 (ip), vehicle: suspension in saline): 105 % of control; T/C [13]: 84 % of control; T/C [9]: 98 % of control

Which T/C (dose: 105.0 mg/kg/injection, schedule: Q07DX002 (ip), vehicle: water) does the source give for COc1cc(NCc2ccc3nc(N)nc(N)c3c2C)cc(OC)c1OC (tested in a mixture with another compound) here?
Its T/C is 86 % of control.

And the T/C (dose: 157.0 mg/kg/injection, schedule: Q07DX002 (ip), vehicle: water)?
Its T/C is 100 % of control.

What about the T/C (dose: 236.0 mg/kg/injection, schedule: Q07DX002 (ip), vehicle: water) of the same compound?
The T/C was 75 % of control.

For CSc1ccc2c(c1)C(N1CCN(C)CC1)Cc1ccccc1S2 (centres undefined), which T/C [14] is on record?
The T/C was 68 % of control and 72 % of control.

With CC1(C)CC(=O)C(CSC(=O)c2ccccc2)C(=O)C1 as the compound, how does the T/C [3] read?
The T/C was 120 % of control and 104 % of control.

And the T/C [4]?
Its T/C is 113 % of control and 104 % of control.

What about the T/C [6] of the same compound?
The T/C was 88 % of control.

For c1cc[c]([Sn]([NH]c2ncnc3[nH]cnc23)([NH]c2ncnc3[nH]cnc23)[c]2ccccc2)cc1, which T/C [16] is on record?
Its T/C is 51 % of control.

And the T/C [13]?
Its T/C is 84 % of control.

And the T/C (dose: 100.0 mg/kg/injection, schedule: Q07DX002 (ip), vehicle: saline)?
Its T/C is 46 % of control.

What about the T/C (dose: 200.0 mg/kg/injection, schedule: Q07DX002 (ip), vehicle: saline) of the same compound?
The T/C was 81 % of control.

What about the T/C (dose: 400.0 mg/kg/injection, schedule: Q07DX002 (ip), vehicle: saline) of the same compound?
Its T/C is 66 % of control.

With [Cl][Pt+2][Cl].[NH-]CC1(C[NH-])CCC1 as the compound, how does the T/C [15] read?
The T/C was 50 % of control.
